# Source: patent US20140023713A1, “CLATHRATE COMPLEX OF CYCLODEXTRIN OR ARABINOGALACTAN WITH 9-PHENYL-SYM-OCTA-HYDROSELENOXANTENE” (priority 2011, published 2014)
# “Also recorded” adds a separate entry of the source. Like-named read-outs stand apart in the source and are kept apart here.
# Legend:
# CFU-C-8 = assay type: in vivo, mice
# Description: A study on cytoprotective effect of the compound 1 was conducted.
# hematopoietic stem cells = assay: cloning method of hematopoietic stem cells in the spleens of irradiated mice (spleen colony formation by donor bone marrow cells, radioprotection); assay type: in vivo
# Description: The study of radioprotective and cytoprotective properties of compound 1 and the complex compound 2 (ratio 1:3) by cloning method of hematopoietic stem cells in the spleens of irradiated mice.
# 1) Formation of spleen colonies by bone marrow cells of mice that received Compound 2 multiple times prior to irradiation at a dose of 1.5 Gy. Unlike compound 1, the complex form of compound 2 is water-soluble.
# Compound 2 was administered orally to mice-donors of bone marrow at doses of 5 mg/kg and 2 mg/kg in 0.2 ml physiological solution for 5 days. […] Control mice received 0.2 ml of physiological solution for 5 days. 7 days after the last injection, mice were irradiated (1.5 Gy at installation “Luch-1”). 15 minutes later the animals were sacrificed, a bone marrow cell suspension was prepared and injected to lethally irradiated recipient mice for determination of the colony-forming ability.
# 2) Formation of spleen colonies by bone marrow cells of mice that received Compound 1, suspended in a starch gel, multiple times prior to irradiation at a dose of 1.5 Gy.
# In the second series of experiments using the same experimental scheme and similar doses, the Compound 1 suspension was prepared in 2% starch gel. 90 female mice (CBA×C57B1/6) F1 were used in this study: 18 donors and 72 recipients.
smiles,measurement,setting,value
"N.N.[Cl][Pt][Cl] [Cisplatin, reference compound]",CFU-C-8 Quantity on 10^5 bone marrow cells of donors,"CFU-C-8; mouse, in vivo",6.4 ± 0.6
"c1ccc(C2C3=C(CCCC3)[Se]C3=C2CCCC3)cc1 [Compound 1, 9-phenyl-sym-octahydroselenoxanthene]",Quantity of colonies on 105 cells of bone marrow M ± m,"hematopoietic stem cells; Compound 1 2 mg/kg + Starch gel 2%, no irradiation, 2 mg/kg",24 ± 1.3
same,Quantity of colonies on 105 cells of bone marrow M ± m,"hematopoietic stem cells; Compound 1 2 mg/kg + Starch gel 2%, no irradiation, listed as compound 1, 2 mg/kg",statistically significant increase in the number of colonies
same,Quantity of colonies on 105 cells of bone marrow M ± m,"hematopoietic stem cells; Compound 1 2 mg/kg + Starch gel 2%, then 1.5 Gy irradiation",9.1 ± 0.3
same,Quantity of colonies on 105 cells of bone marrow M ± m,"hematopoietic stem cells; Compound 1 5 mg/kg + Starch gel 2%, no irradiation, 5 mg/kg",28.7 ± 1.1
same,Quantity of colonies on 105 cells of bone marrow M ± m,"hematopoietic stem cells; Compound 1 5 mg/kg + Starch gel 2%, no irradiation, listed as compound 1, 5 mg/kg",statistically significant increase in the number of colonies
same,Quantity of colonies on 105 cells of bone marrow M ± m,"hematopoietic stem cells; Compound 1 5 mg/kg + Starch gel 2%, then 1.5 Gy irradiation",9.5 ± 0.8
same,adaptive response of hematopoietic stem cells to irradiation / radioprotective effect (in words),"hematopoietic stem cells; treatment for 5 days prior to irradiation 1.5 Gy, both doses (5 and 2 mg/kg)",absent; also recorded: does not provide the radioprotective effect
same,CFU-C-8 Quantity on 10^5 bone marrow cells of donors,CFU-C-8; Compound 1 5 mg/kg 7 days prior to single Cisplatin 5 mg/kg,9.6 ± 0.3
same,CFU-C-8 Quantity on 10^5 bone marrow cells of donors,"CFU-C-8; Compound 1 5 mg/kg, no Cisplatin",12.6 ± 0.6
same,adaptive response of CFU-S-8 to cisplatin (in words),CFU-C-8; administered 7 days prior to a single injection of cisplatin,distinct adaptive response
